The source of these data is patent US10399940B2, “Substituted pyrrolidines and methods of use” (AbbVie S.à.r.l., priority 2016, dated 2019).

Like-named read-outs stand apart in the source and are kept apart here. A value given as a limit tells only on which side of the number the result lay.

The target of the test is T1, F508delCFTR (Homo sapiens, UniProt P13569, DEL508-508).
T1 construct: expressed in transfected cells; host or cells: CFBE41o- (human lung derived epithelial cell line), doxycycline-inducible expression
T1 sequence (P13569 with tags, fused parts or gaps DEL508-508): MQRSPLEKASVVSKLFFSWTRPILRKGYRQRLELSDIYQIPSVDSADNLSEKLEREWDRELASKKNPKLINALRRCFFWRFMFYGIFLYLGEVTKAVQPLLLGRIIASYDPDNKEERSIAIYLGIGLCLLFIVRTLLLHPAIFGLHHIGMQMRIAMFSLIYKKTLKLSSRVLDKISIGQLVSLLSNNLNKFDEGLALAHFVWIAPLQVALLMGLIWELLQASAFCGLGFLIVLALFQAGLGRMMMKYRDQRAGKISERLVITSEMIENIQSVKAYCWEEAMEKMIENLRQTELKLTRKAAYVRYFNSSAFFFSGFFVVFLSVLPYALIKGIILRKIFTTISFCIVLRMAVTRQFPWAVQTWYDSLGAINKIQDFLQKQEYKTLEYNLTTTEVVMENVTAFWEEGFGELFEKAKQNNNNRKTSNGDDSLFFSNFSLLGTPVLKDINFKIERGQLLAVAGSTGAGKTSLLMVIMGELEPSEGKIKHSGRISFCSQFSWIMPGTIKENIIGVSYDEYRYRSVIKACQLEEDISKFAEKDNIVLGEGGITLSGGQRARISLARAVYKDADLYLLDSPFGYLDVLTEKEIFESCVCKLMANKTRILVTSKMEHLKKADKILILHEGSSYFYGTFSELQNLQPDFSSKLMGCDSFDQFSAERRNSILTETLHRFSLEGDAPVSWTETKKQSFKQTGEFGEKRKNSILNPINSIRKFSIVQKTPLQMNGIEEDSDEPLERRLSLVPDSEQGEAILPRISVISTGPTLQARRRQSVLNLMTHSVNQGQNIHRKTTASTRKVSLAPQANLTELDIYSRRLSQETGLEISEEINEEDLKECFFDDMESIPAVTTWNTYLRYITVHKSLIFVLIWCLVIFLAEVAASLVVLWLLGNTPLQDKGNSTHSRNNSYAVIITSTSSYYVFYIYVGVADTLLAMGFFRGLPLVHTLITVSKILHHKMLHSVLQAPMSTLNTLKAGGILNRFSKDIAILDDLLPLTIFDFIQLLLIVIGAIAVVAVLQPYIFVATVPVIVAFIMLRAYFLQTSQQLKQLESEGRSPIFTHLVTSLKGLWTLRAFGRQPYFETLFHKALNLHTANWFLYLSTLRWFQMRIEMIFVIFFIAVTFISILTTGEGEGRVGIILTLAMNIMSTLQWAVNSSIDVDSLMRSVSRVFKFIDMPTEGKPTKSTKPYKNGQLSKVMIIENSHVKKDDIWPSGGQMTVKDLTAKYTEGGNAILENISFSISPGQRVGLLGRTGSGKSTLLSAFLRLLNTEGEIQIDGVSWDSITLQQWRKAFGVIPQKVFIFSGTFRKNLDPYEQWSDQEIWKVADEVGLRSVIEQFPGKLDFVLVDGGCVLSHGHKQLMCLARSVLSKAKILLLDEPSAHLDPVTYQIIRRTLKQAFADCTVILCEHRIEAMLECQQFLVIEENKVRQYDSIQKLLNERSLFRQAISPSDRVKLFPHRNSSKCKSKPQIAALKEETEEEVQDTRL
In words: Cell Surface Expression-Horse Radish Peroxidase (CSE-HRP) assay. It counts as cell-based. Conditions: CFBE41o-F508delCFTR-HRP cells; for Maximum % activity (with co-corrector): with co-corrector (2 μM); for Maximum % activity (with co-corrector) / Maximum % activity (without co-corrector): normalized to on-plate positive control, highest concentration 20 μM. Here is the method: Cell Surface Expression-Horse Radish Peroxidase (CSE-HRP) Assay
A cellular assay for measuring the F508delCFTR cell surface expression after correction with test compounds either without or with a co-corrector (2 μM of 3-[(2R,4R)-4-({[1-(2,2-difluoro-1,3-benzodioxol-5-yl)cyclopropyl]carbonyl}amino)-7-methoxy-3,4-dihydro-2H-chromen-2-yl]benzoic acid), was developed in human lung derived epithelial cell line (CFBE41o-) (Veit G et al, (2012) Mol Biol Cell. 23(21): 4188-4202). The development was achieved by expressing the F508delCFTR mutation along with a horseradish peroxidase (HRP) in the fourth exofacial loop, and then measuring the HRP activity using luminescence readout from these cells, CFBE41o-F508delCFTR-HRP, that were incubated overnight with the test corrector compounds, either without or with the co-corrector. For this primary assay, the CFBE41o-F508delCFTR-HRP cells were plated in 384-well plates (Greiner Bio-one; Cat 781080) at 4,000 cells/well along with 0.5 μg/mL doxycycline to induce the F508delCFTR-HRP expression and further incubated at 37° C., 5% CO2 for 72 hours. The test compounds were then added either without or with a co-corrector at the required concentrations and further incubated for 18-24 hours at 33° C. The highest concentration tested was 20 μM with an 8-point concentration response curve using a 3-fold dilution in both the test compound without or with the co-corrector. Three replicate plates were run to determine one EC50. All plates contained negative controls (dimethyl sulfoxide, DMSO) and positive control (2 μM of 3-[(2R,4R)-4-({[1-(2,2-difluoro-1,3-benzodioxol-5-yl)cyclopropyl]carbonyl}amino)-7-methoxy-3,4-dihydro-2H-chromen-2-yl]benzoic acid) as well as on-plate concentration response of the positive control. Post incubation, the plates were washed 5× times with Dulbecco's phosphate buffered saline (DPBS), followed by the addition of the HRP substrate, luminol (50 μL), and measuring the HRP activity using luminescence readout on EnVision® Multilabel Plate Reader (Perkin Elmer; product number 2104-0010). The raw counts from the experiment were analyzed using Accelrys® Assay Explorer v3.3.
Z′ greater than 0.5 was used as passing quality control criteria for the plates.
The Z′ is defined as: 1−[3*SDPositive Control+3*SDNegative Control/Absolute(MeanPositive Control−MeanNegative Control)] wherein “SD” is standard deviation.
The % activity measured at each of the 8 test concentrations of the test compound added either without or with a co-corrector (2 μM of 3-[(2R,4R)-4-({[1-(2,2-difluoro-1,3-benzodioxol-5-yl)cyclopropyl]carbonyl}amino)-7-methoxy-3,4-dihydro-2H-chromen-2-yl]benzoic acid) was normalized to the on-plate positive control using the following formulae: % activity(Test compound without co-corrector)=[(test compound without co-corrector response−DMSO response)/(positive control response−DMSO response)]*100 % activity(Test compound with co-corrector)=[(test compound with co-corrector response−DMSO response)/(positive control response−DMSO response)]*100
The maximum % activity achieved for the test compound either without or with a co-corrector at any tested concentration is presented in Table 1 along with the respective EC50's calculated using the following general sigmoidal curve with variable Hill slope equation (described as Model 42 in the Accelrys® Assay Explorer v3.3 software): y=(a−d)/(1+(x/c)^b)+d
General sigmoidal curve with concentration, response, top, bottom, EC50 and Hill slope. This model describes a sigmoidal curve with an adjustable baseline, a. The equation can be used to fit curves where response is either increasing or decreasing with respect to the independent variable, “x”. • “x” is a concentration of drug under test. • “y” is the response. • “a” is the maximum response, and “d” is the minimum response • “c” is the inflection point (EC50) for the curve. That is, “y” is halfway between the lower and upper asymptotes when x=c. “b” is the slope-factor or Hill coefficient. […]

[1] abbreviates: test compound without co-corrector, 18-24 hours at 33° C., read-out: EC50 (without co-corrector).
The mark [2] stands for this setting: with co-corrector (2 μM of 3-[(2R,4R)-4-({[1-(2,2-difluoro-1,3-benzodioxol-5-yl)cyclopropyl]carbonyl}amino)-7-methoxy-3,4-dihydro-2H-chromen-2-yl]benzoic acid), read-out: EC50 (with co-corrector).

By EC50 is commonly meant the midpoint of the concentration-response curve. As for `COc1ccc(C(F)(F)F)cc1CO[C@@H]1[C@@H](C(C)(C)C)[C@H](C(=O)O)N(C(=O)[C@@H]2CCC[C@@H](OC)C2)[C@@H]1c1ccccc1` (mixture of isomers) [Example 29, rac-(2R,3S,4R,5R)-3-(tert-butyl)-4-((2-methoxy-5-(trifluoromethyl)benzyl)oxy)-1-((1R,3R)-3-methoxycyclohexanecarbonyl)-5-phenylpyrrolidine-2-carboxylic acid], the “Maximum % activity (with co-corrector)” value is listed as “+++ (≥350)” and the “Maximum % activity (without co-corrector)” value is listed as “+++ (≥200)”. The EC50 under setting [1] lay within 1 to 10 µM. The EC50 under setting [2] was 1 to 10 µM.
With `CC(C)(C)[C@@H]1C(OCc2cc(Cl)ccc2Cl)[C@@H](c2ccccc2)N(C(=O)CC2CCCC2)[C@H]1C(=O)O` (mixture of isomers) [Example 1, rac-(2R,3S,5R)-3-tert-butyl-1-(cyclopentylacetyl)-4-[(2,5-dichlorophenyl)methoxy]-5-phenylpyrrolidine-2-carboxylic acid], the “Maximum % activity (with co-corrector)” value is “+++ (≥350)” and the “Maximum % activity (without co-corrector)” value is “+ (<100)”. In addition, the EC50 under setting [1] lay in the range of 1 to 10 µM. For the same compound, under setting [2], the EC50 is 1 to 10 µM.
Turning to `COc1ccc(C(F)(F)F)cc1COC1[C@@H](c2ccccc2)N(C(=O)C2CCCCC2)[C@@H](C(=O)O)[C@@H]1C(C)(C)C` (mixture of isomers) [Example 2, rac-(2R,3S,5R)-3-tert-butyl-1-(cyclohexanecarbonyl)-4-{[2-methoxy-5-(trifluoromethyl)phenyl]methoxy}-5-phenylpyrrolidine-2-carboxylic acid], the “Maximum % activity (with co-corrector)” value was “+++ (≥350)”; the “Maximum % activity (without co-corrector)” value was “++ (≥100 and <200)”. Also, under setting [1], the half-maximal effective concentration (EC50) was in the range of 1 to 10 µM. For the same compound, under setting [2], the EC50 lay in the range of 1 to 10 µM.
`COc1ccc(Cl)cc1COC1[C@@H](c2ccccc2)N(C(=O)C2CCCCC2)[C@@H](C(=O)O)[C@@H]1C(C)(C)C` (mixture of isomers) [Example 3, rac-(2R,3S,5R)-3-tert-butyl-4-[(5-chloro-2-methoxyphenyl)methoxy]-1-(cyclohexanecarbonyl)-5-phenylpyrrolidine-2-carboxylic acid]: the “Maximum % activity (with co-corrector)” value was “+++ (≥350)”; the “Maximum % activity (without co-corrector)” value was “++ (≥100 and <200)”. For the same compound, under setting [1], the concentration for a half-maximal effect (EC50) fell in the range of 1 to 10 µM. Moreover, the EC50 under setting [2] was in the range of 1 to 10 µM.
Consider `CC(C)(C)[C@@H]1C(OCc2cc(Cl)ccc2Cl)[C@@H](c2ccccc2)N(C(=O)C2CCCCC2)[C@H]1C(=O)O` (mixture of isomers) [Example 4, rac-(2R,3S,5R)-3-tert-butyl-1-(cyclohexanecarbonyl)-4-[(2,5-dichlorophenyl)methoxy]-5-phenylpyrrolidine-2-carboxylic acid], for which the “Maximum % activity (with co-corrector)” value was “+++ (≥350)”; the “Maximum % activity (without co-corrector)” value is “++ (≥100 and <200)”. Further, under setting [1], the EC50 was 1 to 10 µM. Further, the EC50 under setting [2] lay within 1 to 10 µM.
Regarding `Cc1cc(C(F)(F)F)cc(OC2[C@@H](c3ccccc3)N(C(=O)C3CCCCC3)[C@@H](C(=O)O)[C@@H]2C(C)(C)C)n1` (mixture of isomers) [Example 5, rac-(2R,3S,5R)-3-tert-butyl-1-(cyclohexanecarbonyl)-4-{[6-methyl-4-(trifluoromethyl)pyridin-2-yl]oxy}-5-phenylpyrrolidine-2-carboxylic acid], the “Maximum % activity (with co-corrector)” value is “+++ (≥350)”; the “Maximum % activity (without co-corrector)” value is “++ (≥100 and <200)”. Moreover, the EC50 under setting [1] lay within 1 to 10 µM. Further, the EC50 under setting [2] lay within 1 to 10 µM.
As for `COc1cc(OC)nc(OC2[C@@H](c3ccccc3)N(C(=O)N(C(C)C)C(C)C)[C@@H](C(=O)O)[C@@H]2C(C)(C)C)n1` (mixture of isomers) [Example 6, rac-(2R,3S,5R)-3-tert-butyl-4-[(4,6-dimethoxypyrimidin-2-yl)oxy]-1-[di(propan-2-yl)carbamoyl]-5-phenylpyrrolidine-2-carboxylic acid], the “Maximum % activity (with co-corrector)” value is given as “+++ (≥350)” and the “Maximum % activity (without co-corrector)” value is reported as “+ (<100)”. In addition, under setting [1], the EC50 fell in the range of 1 to 10 µM. Under setting [2], the EC50 fell in the range of 1 to 10 µM.
Turning to `COc1ccc(C(F)(F)F)cc1COC1[C@@H](c2ccccc2)N(C(=O)N(C(C)C)C(C)C)[C@@H](C(=O)O)[C@@H]1C(C)(C)C` (mixture of isomers) [Example 7, rac-(2R,3S,5R)-3-tert-butyl-1-[di(propan-2-yl)carbamoyl]-4-{[2-methoxy-5-(trifluoromethyl)phenyl]methoxy}-5-phenylpyrrolidine-2-carboxylic acid], the “Maximum % activity (with co-corrector)” value is listed as “+ (<150)” and the “Maximum % activity (without co-corrector)” value was “+ (<100)”. The EC50 under setting [1] was above 10 µM. The EC50 under setting [2] was above 10 µM.
As to `COc1ncnc(OC)c1CO[C@@H]1[C@@H](C(C)(C)C)[C@H](C(=O)O)N(C(=O)C2CCCCC2)[C@@H]1c1ccccc1` (racemic) [Example 10, rac-(2R,3S,4R,5R)-3-tert-butyl-1-(cyclohexanecarbonyl)-4-[(4,6-dimethoxypyrimidin-5-yl)methoxy]-5-phenylpyrrolidine-2-carboxylic acid], the “Maximum % activity (with co-corrector)” value is “+++ (≥350)” and the “Maximum % activity (without co-corrector)” value was “+++ (≥200)”. The EC50 under setting [1] is 1 to 10 µM. The EC50 under setting [2] lay within 1 to 10 µM.
Regarding `COc1cc(OC)nc(CO[C@@H]2[C@@H](C(C)(C)C)[C@H](C(=O)O)N(C(=O)C3CCCCC3)[C@@H]2c2ccccc2)n1` (racemic) [Example 11, rac-(2R,3S,4R,5R)-3-tert-butyl-1-(cyclohexanecarbonyl)-4-[(4,6-dimethoxypyrimidin-2-yl)methoxy]-5-phenylpyrrolidine-2-carboxylic acid], the “Maximum % activity (with co-corrector)” value is given as “+++ (≥350)”; the “Maximum % activity (without co-corrector)” value is “++ (≥100 and <200)”. Under setting [1], the 50% effective concentration (EC50) lay within 1 to 10 µM. Besides, the concentration for a half-maximal effect (EC50) under setting [2] lay within 1 to 10 µM.
In the case of `CN(C)c1ncc(C(F)(F)F)cc1CO[C@@H]1[C@@H](C(C)(C)C)[C@H](C(=O)O)N(C(=O)C2CCCCC2)[C@@H]1c1ccccc1` (racemic) [Example 12, rac-(2R,3S,4R,5R)-3-tert-butyl-1-(cyclohexanecarbonyl)-4-{[2-(dimethylamino)-5-(trifluoromethyl)pyridin-3-yl]methoxy}-5-phenylpyrrolidine-2-carboxylic acid], the “Maximum % activity (with co-corrector)” value is “+++ (≥350)”; the “Maximum % activity (without co-corrector)” value is “++ (≥100 and <200)”. The EC50 under setting [1] is 1 to 10 µM. Under setting [2], the EC50 lay in the range of 1 to 10 µM.
On to `COc1ccc(C(F)(F)F)cc1COC1[C@@H](c2ccccc2OC)N(C(=O)C2CCCCC2)[C@@H](C(=O)O)[C@@H]1C(C)(C)C` (mixture of isomers) [Example 13, rac-(2R,3S,5R)-3-tert-butyl-1-(cyclohexanecarbonyl)-5-(2-methoxyphenyl)-4-{[2-methoxy-5-(trifluoromethyl)phenyl]methoxy}pyrrolidine-2-carboxylic acid], for which the “Maximum % activity (with co-corrector)” value is “+++ (≥350)” and the “Maximum % activity (without co-corrector)” value is “+ (<100)”. Under setting [1], the EC50 is 1 to 10 µM. The concentration giving a half-maximal response (EC50) under setting [2] fell in the range of 1 to 10 µM.
